Reference: patent US9422338B2 (EpoDose LLC, priority 2011, dated 2016)
Where a SMILES comes first, the peptide text is derived from it. Bridges are numbered along the chain shown (N, C = ends). Roman numbers before positions name the chains, in order. [ ]: non-standard residue; d: D form. ξ: configuration not given here. 1Nal = N[C@@H](Cc1cccc2ccccc12)C(=O)O; ξK = NCCCCC(N)C(=O)O; Ava = NCCCCC(=O)O

Target: T1, EPOR (erythropoietin receptor), human recombinant, NSO cells (Homo sapiens, UniProt P19235)
T1 construct: host or cells: NSO cells
T1 sequence (P19235 25-250 limits assumed): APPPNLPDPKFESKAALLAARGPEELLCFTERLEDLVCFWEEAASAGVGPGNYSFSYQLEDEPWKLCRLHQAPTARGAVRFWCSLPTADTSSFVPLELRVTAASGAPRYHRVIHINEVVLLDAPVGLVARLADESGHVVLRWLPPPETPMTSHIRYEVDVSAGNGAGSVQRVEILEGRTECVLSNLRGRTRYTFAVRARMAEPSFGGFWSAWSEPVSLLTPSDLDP
Test: EPOR radioligand binding assay ([125I] Erythropoietin competition)
Procedure: IC50 values were determined by a non-linear, least squares regression analysis using MATHIQ™ (computer software for integrating mathematical functions into new or existing software). […] Where presented, the Hill coefficient (nH), defining the slope of the competitive binding curve, was calculated using MATHIQ™.

[1] = Example 1, mimetics varied in N-end, loop and mid sequences

SMILES	Ki [1]	IC50 (Example 4, first table)	further results
CC[C@H](C)[C@@H]1NC(=O)[C@@H]2CCCN2C(=O)CNC(=O)[C@H](CCSC)NC(=O)[C@H](CCCNC(=N)N)NC(=O)[C@@H](NC(=O)[C@H](CC(C)C)NC(=O)[C@H](Cc2ccc(O)cc2)NC(=O)[C@H](CC(N)=O)NC(C)=O)CSSC[C@@H](C(=O)N[C@@H](CCCCN)C(=O)N2CCC[C@H]2C(=O)NCCCCC(=O)NCCCCC(NC(=O)[C@@H]2CCCN2C(=O)[C@H](CCCCN)NC(=O)[C@@H]2CSSC[C@H](NC(=O)[C@H](CC(C)C)NC(=O)[C@H](Cc3ccc(O)cc3)NC(=O)[C@H](CC(N)=O)NC(C)=O)C(=O)N[C@@H](CCCNC(=N)N)C(=O)N[C@@H](CCSC)C(=O)NCC(=O)N3CCC[C@H]3C(=O)N[C@@H]([C@@H](C)CC)C(=O)N[C@@H]([C@@H](C)O)C(=O)N[C@@H](Cc3c[nH]c4ccccc34)C(=O)N[C@@H](C(C)C)C(=O)N2)C(N)=O)NC(=O)[C@H](C(C)C)NC(=O)[C@H](Cc2c[nH]c3ccccc23)NC(=O)[C@H]([C@@H](C)O)NC1=O (stereo partly drawn) [AC-0005-003] (I: Ac-NYLCRMGPITWVCKP[ξK]-NH2 / II: Ac-NYLCRMGPITWVCKP[Ava]; disulfide I:4-I:13, II:4-II:13; amide I:16-II:C)	48 nM	–	–
CC[C@H](C)[C@@H]1NC(=O)[C@@H]2CCCN2C(=O)CNC(=O)[C@H](CCSC)NC(=O)[C@H](Cc2c[nH]cn2)NC(=O)[C@@H](NC(=O)[C@H](C)NC(=O)[C@H](Cc2ccc(O)cc2)NC(=O)[C@H](CC(C)C)NC(C)=O)CSSC[C@@H](C(=O)N[C@@H](CCC(N)=O)C(=O)NCCCCC(=O)NCCCCC(NC(=O)[C@H](CCC(N)=O)NC(=O)[C@@H]2CSSC[C@H](NC(=O)[C@H](C)NC(=O)[C@H](Cc3ccc(O)cc3)NC(=O)[C@H](CC(C)C)NC(C)=O)C(=O)N[C@@H](Cc3c[nH]cn3)C(=O)N[C@@H](CCSC)C(=O)NCC(=O)N3CCC[C@H]3C(=O)N[C@@H]([C@@H](C)CC)C(=O)N[C@@H]([C@@H](C)O)C(=O)N[C@@H](Cc3cccc4ccccc34)C(=O)N[C@@H](C(C)C)C(=O)N2)C(N)=O)NC(=O)[C@H](C(C)C)NC(=O)[C@H](Cc2cccc3ccccc23)NC(=O)[C@H]([C@@H](C)O)NC1=O (stereo partly drawn) [AC-0005-005] (I: Ac-LYACHMGPIT[1Nal]VCQ[ξK]-NH2 / II: Ac-LYACHMGPIT[1Nal]VCQ[Ava]; disulfide I:4-I:13, II:4-II:13; amide I:15-II:C)	–	> 10000 nM	–
CC[C@H](C)[C@@H]1NC(=O)[C@@H]2CCCN2C(=O)CNC(=O)[C@H](CCSC)NC(=O)[C@H](Cc2c[nH]cn2)NC(=O)[C@@H](NC(=O)[C@H](C)NC(=O)[C@H](Cc2ccc(O)cc2)NC(=O)[C@H](CC(C)C)NC(C)=O)CSSC[C@@H](C(=O)NCCCCC(=O)NCCCCC(NC(=O)[C@@H]2CSSC[C@H](NC(=O)[C@H](C)NC(=O)[C@H](Cc3ccc(O)cc3)NC(=O)[C@H](CC(C)C)NC(C)=O)C(=O)N[C@@H](Cc3c[nH]cn3)C(=O)N[C@@H](CCSC)C(=O)NCC(=O)N3CCC[C@H]3C(=O)N[C@@H]([C@@H](C)CC)C(=O)N[C@@H]([C@@H](C)O)C(=O)N[C@@H](Cc3cccc4ccccc34)C(=O)N[C@@H](C(C)C)C(=O)N2)C(N)=O)NC(=O)[C@H](C(C)C)NC(=O)[C@H](Cc2cccc3ccccc23)NC(=O)[C@H]([C@@H](C)O)NC1=O (stereo partly drawn) [AC-0005-006] (I: Ac-LYACHMGPIT[1Nal]VC[ξK]-NH2 / II: Ac-LYACHMGPIT[1Nal]VC[Ava]; disulfide I:4-I:13, II:4-II:13; amide I:14-II:C)	–	> 10000 nM	–
CC[C@H](C)[C@@H]1NC(=O)[C@@H]2CCCN2C(=O)CNC(=O)[C@H](CCSC)NC(=O)[C@H](Cc2c[nH]cn2)NC(=O)C(NC(=O)[C@H](C)NC(=O)[C@H](Cc2ccc(O)cc2)NC(=O)[C@H](CC(C)C)NC(C)=O)CCOCC(C(=O)N[C@@H](CCC(N)=O)C(=O)N2CCC[C@H]2C(=O)NCCCCC(=O)NCCCCC(NC(=O)[C@@H]2CCCN2C(=O)[C@H](CCC(N)=O)NC(=O)C2COCCC(NC(=O)[C@H](C)NC(=O)[C@H](Cc3ccc(O)cc3)NC(=O)[C@H](CC(C)C)NC(C)=O)C(=O)N[C@@H](Cc3c[nH]cn3)C(=O)N[C@@H](CCSC)C(=O)NCC(=O)N3CCC[C@H]3C(=O)N[C@@H]([C@@H](C)CC)C(=O)N[C@@H]([C@@H](C)O)C(=O)N[C@@H](Cc3cccc4ccccc34)C(=O)N[C@@H](C(C)C)C(=O)N2)C(N)=O)NC(=O)[C@H](C(C)C)NC(=O)[C@H](Cc2cccc3ccccc23)NC(=O)[C@H]([C@@H](C)O)NC1=O (stereo partly drawn) [AC-0005-007]	–	4950 nM	Ki (Example 4, first table): 2350 nM
CC[C@H](C)[C@@H]1NC(=O)[C@@H]2CCCN2C(=O)CNC(=O)[C@H](CCSC)NC(=O)[C@H](CCCNC(=N)N)NC(=O)C(NC(=O)[C@H](C)NC(=O)[C@H](Cc2ccc(O)cc2)NC(=O)[C@H](CC(C)C)NC(C)=O)CCOCC(C(=O)NCCCCC(=O)NCCCCC(NC(=O)C2COCCC(NC(=O)[C@H](C)NC(=O)[C@H](Cc3ccc(O)cc3)NC(=O)[C@H](CC(C)C)NC(C)=O)C(=O)N[C@@H](CCCNC(=N)N)C(=O)N[C@@H](CCSC)C(=O)NCC(=O)N3CCC[C@H]3C(=O)N[C@@H]([C@@H](C)CC)C(=O)N[C@@H]([C@@H](C)O)C(=O)N[C@@H](Cc3cccc4ccccc34)C(=O)N[C@@H](C(C)C)C(=O)N2)C(N)=O)NC(=O)[C@H](C(C)C)NC(=O)[C@H](Cc2cccc3ccccc23)NC(=O)[C@H]([C@@H](C)O)NC1=O (stereo partly drawn) [AC-0005-008]	–	> 10000 nM	–
CSCC[C@@H]1NC(=O)[C@H](CCCNC(=N)N)NC(=O)C(NC(=O)[C@H](CC(C)C)NC(=O)[C@H](Cc2ccc(O)cc2)NC(=O)[C@H](CC(N)=O)NC(C)=O)CCOCC(C(=O)N[C@@H](CCCCN)C(=O)N2CCC[C@H]2C(=O)NCCCCC(=O)NCCCCC(NC(=O)[C@@H]2CCCN2C(=O)[C@H](CCCCN)NC(=O)C2COCCC(NC(=O)[C@H](CC(C)C)NC(=O)[C@H](Cc3ccc(O)cc3)NC(=O)[C@H](CC(N)=O)NC(C)=O)C(=O)N[C@@H](CCCNC(=N)N)C(=O)N[C@@H](CCSC)C(=O)NCC(=O)N[C@@H](Cc3c[nH]c4ccccc34)C(=O)N[C@@H](C(C)C)C(=O)N2)C(N)=O)NC(=O)[C@H](C(C)C)NC(=O)[C@H](Cc2c[nH]c3ccccc23)NC(=O)CNC1=O (stereo partly drawn) [AC-0005-018]	22 nM	–	IC50 (Example 4, fourth table): 70 nM; Ki (Example 4, fourth table): 33 nM; IC50 (Example 4, second table): 47 nM
CSCC[C@@H]1NC(=O)[C@H](CCCNC(=N)N)NC(=O)C(NC(=O)[C@H](CC(C)C)NC(=O)[C@H](Cc2ccc(O)cc2)NC(=O)[C@H](CC(N)=O)NC(C)=O)CCOCC(C(=O)N[C@@H](CCCCN)C(=O)N2CCC[C@H]2C(=O)NCCCCC(=O)NCCCCC(NC(=O)[C@@H]2CCCN2C(=O)[C@H](CCCCN)NC(=O)C2COCCC(NC(=O)[C@H](CC(C)C)NC(=O)[C@H](Cc3ccc(O)cc3)NC(=O)[C@H](CC(N)=O)NC(C)=O)C(=O)N[C@@H](CCCNC(=N)N)C(=O)N[C@@H](CCSC)C(=O)NCCC(=O)N[C@@H](Cc3c[nH]c4ccccc34)C(=O)N[C@@H](C(C)C)C(=O)N2)C(N)=O)NC(=O)[C@H](C(C)C)NC(=O)[C@H](Cc2c[nH]c3ccccc23)NC(=O)CCNC1=O (stereo partly drawn) [AC-0005-019]	27 nM	–	IC50 (Example 4, second table): 57 nM
